Measurements published in ChEMBL document CHEMBL1681638, “Synthesis of GN8 derivatives and evaluation of their antiprion activity in TSE-infected cells” (Bioorg Med Chem Lett, 2011).
Calls of active or inactive are those of the source. No cut-off for these calls is given here.

Key:
[1] = Antiprion activity in human transmissible spongiform encephalopathies agent Fukuoka-1 prion infected GT1-7 cells assessed as proteinase K-resistant proteins after 3 days Western blotting analysis; type: cell-based; conditions: GT1-7, 72 h
GT1-7 = experiment: Antiprion activity in human transmissible spongiform encephalopathies agent Fukuoka-1 prion infected GT1-7 cells assessed as proteinase K-resistant proteins at 10 uM after 3 days Western blotting analysis relative to control; type: cell-based
Mus musculus [2] = species: Mus musculus; experiment: Effect on PrPc expression level in mouse GT1-7 at 10 uM after 3 days by Western blot method
Mus musculus [3] = species: Mus musculus; experiment: Binding affinity to mouse PrPC by surface plasmon resonance
Mus musculus [4] = species: Mus musculus; experiment: Effect on PrPc expression level in mouse GT1-7 at 2 uM after 3 days by Western blot method
[5] = Cytotoxicity against mouse GT1-7 cells at 2 uM; type: cell-based; conditions: gt1-7, 2 µM

SMILES	Activity (GT1-7)	also measured
CCN(CC)CCCC(C)Nc1c2ccc(Cl)cc2nc2ccc(OC)cc12 (configuration not stated) [QUINACRINE]	–	IC50 [1]: 1100 nM
CN(C)[C@@H]1CCN(CC(=O)Nc2ccc(Cc3ccc(NC(=O)CN4CC[C@@H](N(C)C)C4)cc3)cc2)C1	31%	Activity (Mus musculus [2]): inactive
O=C(Nc1ccc(Cc2ccc(NC(=O)[C@@H]3CCCN3)cc2)cc1)[C@@H]1CCCN1	25%	–
NCC(=O)Nc1ccc(Cc2ccc(NC(=O)CN)cc2)cc1	102%	–
COc1ccccc1C(c1ccc(NC(=O)CN2CCCC2)cc1)c1ccc(NC(=O)CN2CCCC2)cc1	–	IC50 [1]: 580 nM
CC(c1ccccc1)(c1ccc(NC(=O)CN2CCCC2)cc1)c1ccc(NC(=O)CN2CCCC2)cc1	–	IC50 [1]: 660 nM
COC(=O)[C@H]1CCCN1CC(=O)Nc1ccc(Cc2ccc(NC(=O)CN3CCC[C@@H]3C(=O)OC)cc2)cc1	112%	–
O=C(CN1CCOCC1)Nc1ccc(Cc2ccc(NC(=O)CN3CCOCC3)cc2)cc1	93%	–
O=C(Cn1cccn1)Nc1ccc(Cc2ccc(NC(=O)Cn3cccn3)cc2)cc1	106%	–
O=C(CN1CCCC1)Nc1ccccc1NC(=O)CN1CCCC1	82%	–
CN(C)[C@H]1CCN(CC(=O)Nc2ccc(Cc3ccc(NC(=O)CN4CC[C@H](N(C)C)C4)cc3)cc2)C1	34%	Activity (Mus musculus [2]): inactive
O=C(CN1CCCC1)Nc1ccc(Cc2ccc(NC(=O)CN3CCC[C@H]3CO)cc2)cc1	47%	Activity (Mus musculus [2]): inactive
O=C(CN1CCCCC1)Nc1ccc(Cc2ccc(NC(=O)CN3CCCC3)cc2)cc1	29%	Activity (Mus musculus [2]): inactive
CC(C)(c1ccc(NC(=O)CN2CCCC2)cc1)c1cccc(C(C)(C)c2ccc(NC(=O)CN3CCCC3)cc2)c1	–	IC50 [1]: 830 nM
O=C(Nc1ccc(Cc2ccc(NC(=O)c3ccccn3)cc2)cc1)c1ccccn1	122%	–
Nc1ccc(Cc2ccc(NC(=O)CN3CCCC3)cc2)cc1	75%	–
Nc1ccccc1Sc1nc(N)c(N)c(-c2ccco2)c1N	inactive	–
O=C(CN1CCCC1)Nc1ccc(Cc2ccc(NC(=O)CN3CCCC3)c(Cl)c2)cc1Cl	38%	–
O=C(CN1CCCC1)Nc1ccc(S(=O)(=O)c2ccc(NC(=O)CN3CCCC3)cc2)cc1	17%	Activity (Mus musculus [2]): inactive
O=C(CN1CCCC1)Nc1ccc(CCc2ccc(NC(=O)CN3CCCC3)cc2)cc1	40%	–
O=C(CC1CCCC1)Nc1ccc(Cc2ccc(NC(=O)CC3CCCC3)cc2)cc1	86%	–
O=C(CN1CCCC1)Nc1ccc2c(c1)Cc1cc(NC(=O)CN3CCCC3)ccc1-2	45%	–
COc1cc(-c2ccc(NC(=O)CN3CCCC3)c(OC)c2)ccc1NC(=O)CN1CCCC1	42%	–
O=C(CN1CCCC1)Nc1cccc2c(NC(=O)CN3CCCC3)cccc12	110%	–

SMILES	Activity (GT1-7)	also measured
CN(C)CC(=O)Nc1ccc(Cc2ccc(NC(=O)CN(C)C)cc2)cc1	58%	–
CN(C(=O)CN1CCCC1)c1ccc(Cc2ccc(N(C)C(=O)CN3CCCC3)cc2)cc1	77%	–
O=C(CNC1CCCC1)Nc1ccc(Cc2ccc(NC(=O)CNC3CCCC3)cc2)cc1	26%	–
O=C(CN1CCCC1)Nc1cccc(Cc2cccc(NC(=O)CN3CCCC3)c2)c1	20%	Activity (Mus musculus [2]): inactive
O=C(CN1CCCC1)Nc1ccc(Cc2ccc(NC(=O)CN3CCC[C@@H]3CO)cc2)cc1	44%	Activity (Mus musculus [2]): inactive
O=C(CN1CCCC1)Nc1ccc(Sc2ccc(NC(=O)CN3CCCC3)cc2)cc1	22%	Activity (Mus musculus [2]): inactive
CCCN(CCC)CC(=O)Nc1ccc(Cc2ccc(NC(=O)CN(CCC)CCC)cc2)cc1	48%	–
O=C(CN1CCCC1)Nc1ccc(Cc2ccc(NC(=O)CN3CCCC3)cc2)cc1	25%	RU (Mus musculus [3]): 15; IC50 [1]: 1400 nM
O=C(CN1CCCC1)Nc1ccc(Oc2ccc(NC(=O)CN3CCCC3)cc2)cc1	35%	–
O=C(CN1CCCC1)Nc1ccc(Cc2ccc(NC(=O)CN3CC[C@H](O)C3)cc2)cc1	47%	–
O=C(CN1CCCC1)Nc1ccc(C(O)c2ccc(NC(=O)CN3CCCC3)cc2)cc1	62%	–
O=C(CN1CCC[C@H]1C(F)(F)F)Nc1ccc(Cc2ccc(NC(=O)CN3CCC[C@H]3C(F)(F)F)cc2)cc1	85%	–
CC(C)(C)C(c1ccc(NC(=O)CN2CCCC2)cc1)c1ccc(NC(=O)CN2CCCC2)cc1	–	Activity (Mus musculus [4]): inactive; IC50 [1]: 790 nM
O=C(CN1CCC[C@H]1CO)Nc1ccc(Cc2ccc(NC(=O)CN3CCC[C@H]3CO)cc2)cc1	91%	–
O=C(CN1CCC[C@@H]1CO)Nc1ccc(Cc2ccc(NC(=O)CN3CCC[C@@H]3CO)cc2)cc1	75%	–
CC(=O)Nc1ccc(Cc2ccc(NC(=O)CN3CCCC3)cc2)cc1	91%	–
O=C(CN1CC[C@H](O)C1)Nc1ccc(Cc2ccc(NC(=O)CN3CC[C@H](O)C3)cc2)cc1	90%	–
O=C(CN1CCCC1)Nc1ccc(Cc2ccc(NC(=O)CN3CC[C@@H](O)C3)cc2)cc1	43%	–
O=C(CN1CCCC1)Nc1ccc(Cc2cccc(NC(=O)CN3CCCC3)c2)cc1	19%	Activity (Mus musculus [2]): inactive
O=C(CN(C1CCCCC1)C1CCCCC1)Nc1ccc(Cc2ccc(NC(=O)CN(C3CCCCC3)C3CCCCC3)cc2)cc1	106%	–
Nc1c(/N=N/c2ccc(-c3ccc(/N=N/c4cc(S(=O)(=O)O)c5ccccc5c4N)cc3)cc2)cc(S(=O)(=O)O)c2ccccc12 [CONGO RED]	–	IC50 [1]: 5500 nM
O=C(CN1CCCC1)Nc1ccc(C(c2ccc(NC(=O)CN3CCCC3)cc2)C2CCCCCC2)cc1	–	Activity [5]: Non-toxic; Activity (Mus musculus [4]): inactive; IC50 [1]: 510 nM
O=C(CN1CC[C@@H](O)C1)Nc1ccc(Cc2ccc(NC(=O)CN3CC[C@@H](O)C3)cc2)cc1	108%	–
O=C(CN1CC[C@@H](F)C1)Nc1ccc(Cc2ccc(NC(=O)CN3CC[C@@H](F)C3)cc2)cc1	93%	–

SMILES	Activity (GT1-7)	also measured
CCN(CC)CC(=O)Nc1ccc(Cc2ccc(NC(=O)CN(CC)CC)cc2)cc1	23%	Activity (Mus musculus [2]): inactive
CC(C)(C(=O)Nc1ccc(Cc2ccc(NC(=O)C(C)(C)N3CCCC3)cc2)cc1)N1CCCC1	45%	–
NCC(=O)Nc1ccc(Cc2ccc(NC(=O)CN3CCCC3)cc2)cc1	62%	–
c1cc(NCCN2CCCC2)ccc1Cc1ccc(NCCN2CCCC2)cc1	28%	–
O=C(CN1CCCCCC1)Nc1ccc(Cc2ccc(NC(=O)CN3CCCCCC3)cc2)cc1	29%	Activity (Mus musculus [2]): inactive
Nc1ccc(/N=N/c2ccccc2)c(N)c1	inactive	–
COC(=O)[C@@H]1CCCN1CC(=O)Nc1ccc(Cc2ccc(NC(=O)CN3CCC[C@H]3C(=O)OC)cc2)cc1	61%	–
CCCCNCC(=O)Nc1ccc(Cc2ccc(NC(=O)CNCCCC)cc2)cc1	24%	–
O=C(CN1CCCC1)NCCc1ccc(NC(=O)CN2CCCC2)cc1	86%	–
O=C(CN1CCCC1)Nc1ccc(C(=O)c2ccc(NC(=O)CN3CCCC3)cc2)cc1	24%	Activity (Mus musculus [2]): inactive
CC(=O)Nc1ccc(Cc2ccc(NC(C)=O)cc2)cc1	84%	–
O=C(CN1CCCC1)Nc1ccc(NC(=O)CN2CCCC2)cc1	88%	–
O=C(Cn1ccnc1)Nc1ccc(Cc2ccc(NC(=O)Cn3ccnc3)cc2)cc1	167%	–
O=C(CN1C(=O)CCC1=O)Nc1ccc(Cc2ccc(NC(=O)CN3C(=O)CCC3=O)cc2)cc1	90%	–
O=C(CN1CCCC1)Nc1ccc(Cc2ccc(NC(=O)CN3CCOCC3)cc2)cc1	77%	–
CC(C)N(CC(=O)Nc1ccc(Cc2ccc(NC(=O)CN(C(C)C)C(C)C)cc2)cc1)C(C)C	20%	–
Nc1ccc(Cc2ccc(N)cc2)cc1	86%	–
O=C(CN1CC[C@H](F)C1)Nc1ccc(Cc2ccc(NC(=O)CN3CC[C@H](F)C3)cc2)cc1	112%	–
O=C(CN1CCCC1)Nc1ccc(C(c2ccc(F)cc2)(c2ccc(NC(=O)CN3CCCC3)cc2)C(F)(F)F)cc1	–	Activity [5]: Non-toxic; RU (Mus musculus [3]): 32; Activity (Mus musculus [4]): inactive; IC50 [1]: 510 nM
Cc1cc(Cc2cc(C)c(NC(=O)CN3CCCC3)c(C)c2)cc(C)c1NC(=O)CN1CCCC1	22%	Activity (Mus musculus [2]): inactive
CC(C)(c1ccc(NC(=O)CN2CCCC2)cc1)c1ccc(C(C)(C)c2ccc(NC(=O)CN3CCCC3)cc2)cc1	–	IC50 [1]: 690 nM
O=C(CN1CCCCC1)Nc1ccc(Cc2ccc(NC(=O)CN3CCCCC3)cc2)cc1	24%	Activity (Mus musculus [2]): inactive
